“Also recorded” adds a separate entry of the source. Like-named read-outs stand apart in the source and are kept apart here.
What was measured:
[1] = tested on: (α7)5 nAChR; set-up: method as in Dani and Bertrand, [2007]; conditions: homopentameric receptors such as (α7)5; ref Dani and Bertrand, [2007]; cited from earlier work
[2] = tested on: epibatidine-sensitive nAChRs; set-up: method as in Schuller, [2007]; conditions: SCLC cells, ref Schuller, [2007], read-out: EC50 measured in binding studies; cited from earlier work
[3] = molecular target: T1, human α4β2 nAChRs (Homo sapiens, UniProt P17787+P43681); assay: cell-based; type: cell-based; conditions: for voltage dependence of the fractional block at the steady state: NNN 10 μM with 10 μM nicotine, NNK 1 μM with 100 nM nicotine, different Vm; for Imax/Inico: maximal current relative to nicotine, whole-cell; for functional behaviour on α4β2 nAChRs: patch-clamp
T1 construct: expressed in transfected cells
T1 sequence (P43681 29-627 limits assumed): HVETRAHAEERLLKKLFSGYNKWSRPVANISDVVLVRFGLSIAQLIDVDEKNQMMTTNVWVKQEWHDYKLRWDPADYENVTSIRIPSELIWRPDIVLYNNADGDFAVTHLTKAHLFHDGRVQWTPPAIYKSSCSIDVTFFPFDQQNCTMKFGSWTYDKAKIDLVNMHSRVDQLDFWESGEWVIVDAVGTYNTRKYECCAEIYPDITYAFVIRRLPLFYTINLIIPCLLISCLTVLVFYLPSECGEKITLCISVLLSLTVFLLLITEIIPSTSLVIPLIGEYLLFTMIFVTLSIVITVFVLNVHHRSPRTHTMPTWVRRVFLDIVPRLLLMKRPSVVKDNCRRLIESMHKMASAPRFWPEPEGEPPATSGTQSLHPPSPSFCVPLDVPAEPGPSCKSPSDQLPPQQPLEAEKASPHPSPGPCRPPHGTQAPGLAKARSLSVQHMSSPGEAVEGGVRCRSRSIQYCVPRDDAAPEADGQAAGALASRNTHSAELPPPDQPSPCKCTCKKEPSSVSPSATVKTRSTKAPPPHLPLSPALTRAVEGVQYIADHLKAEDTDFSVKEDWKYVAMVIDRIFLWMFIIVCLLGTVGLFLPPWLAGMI
T1 sequence (P17787 26-502): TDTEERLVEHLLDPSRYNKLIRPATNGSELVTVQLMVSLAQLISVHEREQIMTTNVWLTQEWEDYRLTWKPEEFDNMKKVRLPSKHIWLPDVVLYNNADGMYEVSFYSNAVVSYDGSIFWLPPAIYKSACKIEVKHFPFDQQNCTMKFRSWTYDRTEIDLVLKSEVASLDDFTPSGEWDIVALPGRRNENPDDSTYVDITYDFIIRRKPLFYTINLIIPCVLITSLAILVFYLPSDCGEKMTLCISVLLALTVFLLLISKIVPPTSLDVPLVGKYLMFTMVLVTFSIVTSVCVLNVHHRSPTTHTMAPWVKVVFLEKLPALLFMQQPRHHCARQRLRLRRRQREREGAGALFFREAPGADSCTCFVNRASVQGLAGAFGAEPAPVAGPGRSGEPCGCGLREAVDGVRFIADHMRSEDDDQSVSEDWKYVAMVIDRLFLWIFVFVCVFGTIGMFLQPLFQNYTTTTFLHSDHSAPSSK
Protocol: HEK 293 cells stably expressing human α4β2 nAChRs were cultured by standard methods (Di Resta et al., [2010]). In brief, cultures were maintained in Dulbecco's modified Eagle's medium (Hyclone Laboratories), supplemented with 10% fetal calf serum (Hyclone), 4.5 g/l glutamine, […] hygromycin β, and 0.25 μg/ml amphoterycin B. Cells were grown at 37°C and 5% CO2. For patch-clamp experiments, cells were harvested by treatment with trypsin and plated onto 35 mm Petri dishes (Corning Inc.).
Cells were voltage-clamped by using the whole-cell configuration of the patch-clamp method. Currents were registered with an Axopatch 200B amplifier (Molecular Devices), at room temperature (20–22°C). Micropipettes (3–4 MΩ) were pulled from borosilicate capillaries (GMBH) with a P-97 Flaming/Brown Micropipette Puller (Sutter Instrument Co.). The cell capacitance and series resistance (up to about 75%) were always compensated. Currents were low-pass filtered at 2 kHz and acquired on-line at 5–10 kHz with Molecular Devices hardware and software (pClamp 8 and Axoscope 8). After patch rupture, we usually allowed 1–2 min for pipette solution exchange and signal stabilization, before applying our stimuli. Extracellular solutions were applied with an RSC-160 Rapid Solution Changer (BioLogic Science Instruments). The solution is delivered to the cells through borosilicate capillaries connected to Tygon tubes. Seven independent lines are available. […] The perfusing line was totally substituted whenever the drug was changed.
Unless otherwise indicated, chemicals, and drugs were purchased by Sigma-Aldrich Italia Srl. The extracellular solution contained (mM): NaCl 130, KCl 5, CaCl2 2, MgCl2 2, HEPES 10, D-glucose 5 (pH 7.4; adjusted with NaOH). Pipettes contained (mM): K-aspartate 120, NaCl 10, MgCl2 2, CaCl21.3, EGTA-KOH 10, HEPES 10, MgATP 1, (pH 7.3; adjusted with KOH). […] NNK and NNN (20 mM) were dissolved in water and kept refrigerated for no longer than 1 week. […] The final concentrations were obtained by serial dilution.
Data were analyzed with Clampfit 9.2 (Molecular Devices) and OriginPro 9 (OriginLab Co.). Theoretical curves best fitting the data were determined by a nonlinear least-squares method (Levenberg-Marquardt algorithm). For nAChR activation we used both a simple Hill function and the sum of two Hill expressions (Covernton and Connolly, [2000]). The single-term expression was:
The two-terms Hill expression was:
(2) IL/Imax=A/(1+EC50high/[L])^nH1+1-A/(1+EC50low/[L])^nH2
where A is the fraction of receptors in the high-affinity state; EC50high and EC50low are the EC50 values of the components at high and low affinity, respectively; nH1 and nH2 are the corresponding Hill coefficients, and the other symbols are as in Equation (1).
The function used to fit the desensitization data points (Figure 3) was:
(3) ISS/Ipeak=B+1-B/(1+[L]/IC50)^nH
ISS was found by fitting the current decay with a single exponential function and taking the steady state value of this function. A similar function was used to fit the fractional inhibition in Figures 4B, 5B.
(4) y=αNic[Nic]/EC50+αNNK[NNK]/EC50(NNK)/1+[Nic]/EC50+[NNK]/EC50(NNK)

[4] = tested on: α3β4 nAChR; set-up: method as in Nunes-Alves et al., [2012]; conditions: in the presence of 100 μM nicotine; ref Nunes-Alves et al., [2012]; cited from earlier work
[5] = cited from earlier work
[6] = tested on: muscle subtype nAChR; set-up: method as in Nunes-Alves et al., [2012]; conditions: ref Nunes-Alves et al., [2012]; cited from earlier work
[7] = two-terms Hill fit (Equation 2)

CN(CCCC(=O)c1cccnc1)N=O [NNK, 4-(methylnitrosamine)-1-(3-pyridyl)-1-butanone]
EC50 [2]: ~17 µM | peak current ([3]; 10 nM nicotine plus 1 μM NNK, n = 11): 160 ± 30 pA | average current ([3]; 100 nM nicotine plus 100 μM NNK, n = 8): 159.1 ± 25.1 pA | potentiation of the current activated by nicotine ([3]; 1 μM NNK on 0.01 μM nicotine): 26% | concentration of nicotine at which NNK reversed its effect ([3]; 1 μM NNK, estimated by fit with Equation 4): around 20 nM | average peak current density ([3]; 10 μM NNK alone, −80 mV, n = 9): 5.75 ± 1.22 pA/pF | concentration of nicotine at which sign reversal of NNK effect occurs ([3]; 100 μM NNK): approximately 400 nM | potentiation of the current activated by nicotine ([3]; 100 μM NNK on 100 nM (0.1 μM) nicotine, −80 mV): approximately 80% | measured peak current relative to the value in the presence of 300 μM nicotine ([3]; 100 μM NNK, −80 mV, n = 13): 0.14 ± 0.02 | nH of desensitization curve ([3]; Equation 3): 0.9 | inhibition at 100 µM ([3]; HEK293, read-out: inhibition of the current elicited by nicotine): 40% | nicotine concentrations whose currents are potentiated by co-applied NNK ([3]; NNK co-applied with nicotine): ≤ 100 nM | effect on the currents activated by 10 μM nicotine ([3]; NNK concentrations up to 100 nM): no effect | voltage dependence of the fractional block at the steady state [3]: independent of the applied Vm | nH, Hill coefficient of single-term Hill fit (Equation 1) ([3]; activation by agonist alone, −80 mV): 0.44 | nH of inhibition curve ([3]; currents activated by 10 μM nicotine, Equation 3): 0.95 | fit parameters αNIC / αNNK of Equation 4 ([3]; fit of data with 1 μM NNK plus nicotine (Figure 5C)): 5 µM | estimated maximal current activated by NNK, % of the current elicited by 300 μM nicotine ([3]; from Equation 1 fit, −80 mV): approximately 16% | Imax/Inico ([3]; −80 mV): 0.16 | functional behaviour on α4β2 nAChRs [3]: partial agonist | IC50 ([3]; read-out: Desensitization IC50, fractional steady state current ISS/Ipeak vs agonist concentration, Equation 3): 1.7 µM | EC50 ([3]; read-out: EC50 (single-term Hill, Equation 1), peak whole-cell currents at −80 mV, activation by agonist alone): 16.7 µM | EC50 ([3]; read-out: EC50high, high-affinity component, two-terms Hill fit (Equation 2)): 0.035 µM | EC50 ([3]; read-out: EC50low, low-affinity component, two-terms Hill fit (Equation 2)): 12.8 µM | IC50 ([3]; read-out: Inhibition IC50, with 10 μM nicotine, steady state fractional current, −80 mV): > 100 µM | Hill coefficient of the high-affinity component (nH1 in Table 1) [3, 7]: 1.2 | Hill coefficient of the low-affinity component (nH2 in Table 1) [3, 7]: 1.4 | NNK concentrations that elicited inward currents ([3]; −80 mV, NNK alone): higher than 10 nM

O=NN1CCC[C@H]1c1cccnc1 [NNN, N'-nitrosonornicotine]
IC50 [4]: 1140 µM | concentrations normally encountered in smokers' plasma ([5]; ref Schuller, [2007]): < 0.1 nM | effect on the muscle subtype [6]: little effect | voltage dependence of the fractional block at the steady state [3]: independent of the applied Vm | Imax/Inico ([3]; −80 mV): 0 | functional behaviour on α4β2 nAChRs [3]: pure inhibitor | IC50 ([3]; read-out: Inhibition IC50): ~0.001 µM | IC50 ([3]; with 10 μM nicotine, steady state fractional current, −80 mV, read-out: Inhibition IC50): 0.00021 µM | nAChR activation (whole-cell current) by the compound alone ([3]; −80 mV, NNN 10 μM and up to 100 μM): never produced nAChR activation; also recorded: did not elicit any whole-cell current

CN1CCC[C@H]1c1cccnc1 [Nicotine, nicotine, reference compound]
EC50 [1]: […] | plasma nicotine concentration immediately after smoking ([5]; smokers, ref Schaal and Chellappan, [2014]): […] | average current [3]: 89.4 ± 19.4 pA | nH of nicotine alone (Figure 4C) [3]: 0.83 | nH of nicotine in the presence of 1 nM NNN [3]: 0.92 | nH of nicotine in the presence of 1 μM NNN [3]: 1 | peak current [3]: 119 ± 24 pA
